Experimental data: ChEMBL document CHEMBL2016457, “Discovery of potent and orally bioavailable 17β-hydroxysteroid dehydrogenase type 3 inhibitors” (Bioorg Med Chem, 2012)
Active and inactive are the calls of the source. How the calls were made is not given here.

Assays:
[1] = target: T1, Androgen receptor (Homo sapiens) (UniProt P10275); test: Agonist activity at human androgen receptor expressed in human HeLa cells assessed as DHT-induced response after 40 hrs by luciferase/beta-galactosidase-based reporter gene assay; assay type: functional, cell-based
T1 sequence (whole entry): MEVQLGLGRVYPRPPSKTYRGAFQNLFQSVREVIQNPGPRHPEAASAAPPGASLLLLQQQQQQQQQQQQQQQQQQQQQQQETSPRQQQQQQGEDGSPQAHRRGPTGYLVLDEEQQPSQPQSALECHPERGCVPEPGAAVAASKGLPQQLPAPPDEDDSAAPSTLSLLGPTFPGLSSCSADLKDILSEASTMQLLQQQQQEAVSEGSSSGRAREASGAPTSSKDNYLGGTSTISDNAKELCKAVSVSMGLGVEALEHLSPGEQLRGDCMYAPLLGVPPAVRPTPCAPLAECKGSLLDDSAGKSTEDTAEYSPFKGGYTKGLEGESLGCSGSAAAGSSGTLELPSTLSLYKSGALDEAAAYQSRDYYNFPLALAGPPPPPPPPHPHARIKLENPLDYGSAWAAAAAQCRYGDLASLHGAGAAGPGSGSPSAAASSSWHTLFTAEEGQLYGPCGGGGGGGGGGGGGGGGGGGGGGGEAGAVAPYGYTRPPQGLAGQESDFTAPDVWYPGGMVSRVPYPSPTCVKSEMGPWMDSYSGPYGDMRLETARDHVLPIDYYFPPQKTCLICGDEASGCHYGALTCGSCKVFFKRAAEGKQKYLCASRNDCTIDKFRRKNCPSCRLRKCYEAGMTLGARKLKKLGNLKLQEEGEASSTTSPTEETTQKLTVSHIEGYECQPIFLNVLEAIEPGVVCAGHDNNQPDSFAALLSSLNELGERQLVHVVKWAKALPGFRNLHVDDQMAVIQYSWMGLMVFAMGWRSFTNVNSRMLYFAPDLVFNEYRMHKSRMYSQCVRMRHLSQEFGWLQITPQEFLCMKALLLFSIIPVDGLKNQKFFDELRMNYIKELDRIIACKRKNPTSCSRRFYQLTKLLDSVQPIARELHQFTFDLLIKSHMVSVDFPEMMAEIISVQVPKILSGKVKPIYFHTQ

[2] = target: T2, 17-beta-hydroxysteroid dehydrogenase type 1 (Homo sapiens) (UniProt P14061); test: Inhibition of human recombinant 17-beta-HSD1 expressed in human HeLa cells using estrone as substrate preincubated for 30 mins prior substrate addition measured after 120 mins by spectrophotometry; assay type: cell-based
T2 sequence (whole entry): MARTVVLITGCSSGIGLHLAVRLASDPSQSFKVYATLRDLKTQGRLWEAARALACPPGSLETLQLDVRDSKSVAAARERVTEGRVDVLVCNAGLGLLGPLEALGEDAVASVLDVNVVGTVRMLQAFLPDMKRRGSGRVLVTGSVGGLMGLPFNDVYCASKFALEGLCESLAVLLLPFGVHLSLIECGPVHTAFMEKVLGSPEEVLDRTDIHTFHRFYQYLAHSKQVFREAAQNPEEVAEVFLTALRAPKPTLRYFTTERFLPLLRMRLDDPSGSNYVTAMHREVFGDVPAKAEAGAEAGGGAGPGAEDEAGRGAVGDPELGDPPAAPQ

[3] = target: T3, Estrogen receptor (Homo sapiens) (UniProt P03372); test: Agonist activity at human Estrogen receptor ERalpha expressed in human HeLa cells assessed as DHT-induced response after 40 hrs by luciferase/beta-galactosidase-based reporter gene assay; assay type: functional, cell-based
T3 sequence (whole entry): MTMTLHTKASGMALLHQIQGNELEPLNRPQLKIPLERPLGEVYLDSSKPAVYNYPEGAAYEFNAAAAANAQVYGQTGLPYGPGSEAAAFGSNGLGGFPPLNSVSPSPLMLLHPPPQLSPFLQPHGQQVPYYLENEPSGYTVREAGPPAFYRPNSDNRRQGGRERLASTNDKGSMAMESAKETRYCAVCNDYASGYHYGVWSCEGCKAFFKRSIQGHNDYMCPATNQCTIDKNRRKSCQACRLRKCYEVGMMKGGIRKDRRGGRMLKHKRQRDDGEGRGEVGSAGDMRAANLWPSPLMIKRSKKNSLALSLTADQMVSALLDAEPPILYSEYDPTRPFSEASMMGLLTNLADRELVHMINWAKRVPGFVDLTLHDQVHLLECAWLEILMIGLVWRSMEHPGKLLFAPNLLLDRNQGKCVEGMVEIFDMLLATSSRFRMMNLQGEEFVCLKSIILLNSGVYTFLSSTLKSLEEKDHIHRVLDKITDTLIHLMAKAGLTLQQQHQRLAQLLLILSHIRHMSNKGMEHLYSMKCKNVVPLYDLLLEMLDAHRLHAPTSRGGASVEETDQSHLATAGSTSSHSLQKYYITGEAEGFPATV

[4] = target: T4, Glucocorticoid receptor (Homo sapiens) (UniProt P04150); test: Antagonist activity at human GR receptor expressed in human HeLa cells assessed as inhibition of DHT-induced response after 40 hrs by luciferase/beta-galactosidase-based reporter gene assay; assay type: functional, cell-based
T4 sequence (whole entry): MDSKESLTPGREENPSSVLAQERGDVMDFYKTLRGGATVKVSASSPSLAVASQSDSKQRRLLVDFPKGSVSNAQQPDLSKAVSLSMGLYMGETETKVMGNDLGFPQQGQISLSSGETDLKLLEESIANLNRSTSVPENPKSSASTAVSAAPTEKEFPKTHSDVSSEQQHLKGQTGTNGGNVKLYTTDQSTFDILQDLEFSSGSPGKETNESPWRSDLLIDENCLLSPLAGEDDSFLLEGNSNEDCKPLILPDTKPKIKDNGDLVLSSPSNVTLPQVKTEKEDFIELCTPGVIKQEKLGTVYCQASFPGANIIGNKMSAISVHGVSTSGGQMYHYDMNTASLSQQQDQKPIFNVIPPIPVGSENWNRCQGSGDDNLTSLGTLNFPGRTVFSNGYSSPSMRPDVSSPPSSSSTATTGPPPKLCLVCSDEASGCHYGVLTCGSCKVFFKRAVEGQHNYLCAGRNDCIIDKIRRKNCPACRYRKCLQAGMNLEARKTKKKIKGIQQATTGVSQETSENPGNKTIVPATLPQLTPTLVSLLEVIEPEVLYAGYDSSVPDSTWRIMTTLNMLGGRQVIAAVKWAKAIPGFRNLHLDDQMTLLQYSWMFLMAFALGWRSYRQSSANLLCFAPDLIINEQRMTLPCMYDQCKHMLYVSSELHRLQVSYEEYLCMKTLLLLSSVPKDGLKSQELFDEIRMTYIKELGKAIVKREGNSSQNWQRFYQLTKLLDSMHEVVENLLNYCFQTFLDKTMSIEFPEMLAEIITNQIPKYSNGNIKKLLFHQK

[5] = target: T3, Estrogen receptor (Homo sapiens); test: Antagonist activity at human ERalpha receptor expressed in human HeLa cells assessed as inhibition of DHT-induced response after 40 hrs by luciferase/beta-galactosidase-based reporter gene assay; assay type: functional, cell-based
[6] = target: T1, Androgen receptor (Homo sapiens); test: Antagonist activity at human androgen receptor expressed in human HeLa cells assessed as inhibition of DHT-induced response after 40 hrs by luciferase/beta-galactosidase-based reporter gene assay; assay type: functional, cell-based
[7] = Solubility of the compound; assay type: physicochemical
[8] = target: T4, Glucocorticoid receptor (Homo sapiens); test: Agonist activity at human Glucocorticoid receptor expressed in human HeLa cells assessed as DHT-induced response after 40 hrs by luciferase/beta-galactosidase-based reporter gene assay; assay type: functional, cell-based
[9] = target: T5, 17-beta-hydroxysteroid dehydrogenase type 2 (Homo sapiens) (UniProt P37059); test: Inhibition of human recombinant 17-beta-HSD2 expressed in human HeLa cells using estradiol as substrate preincubated for 30 mins prior substrate addition measured after 120 mins by spectrophotometry; assay type: cell-based
T5 sequence (whole entry): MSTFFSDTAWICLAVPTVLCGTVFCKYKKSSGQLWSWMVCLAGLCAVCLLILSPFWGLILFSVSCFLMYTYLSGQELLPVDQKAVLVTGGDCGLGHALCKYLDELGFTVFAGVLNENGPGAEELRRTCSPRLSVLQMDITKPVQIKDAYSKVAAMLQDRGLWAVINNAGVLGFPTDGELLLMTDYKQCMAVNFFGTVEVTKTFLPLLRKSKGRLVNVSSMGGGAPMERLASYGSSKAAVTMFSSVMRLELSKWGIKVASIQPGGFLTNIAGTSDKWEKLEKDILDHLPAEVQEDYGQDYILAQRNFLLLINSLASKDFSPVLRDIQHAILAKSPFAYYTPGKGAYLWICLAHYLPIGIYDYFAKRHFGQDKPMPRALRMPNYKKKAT

Activity [1]: inactive | inhibition [2]: inactive | Activity [3]: inactive | Activity [4]: inactive | Activity [5]: inactive | Activity [6]: inactive | solubility [7]: < 1 µg/mL | Activity [8]: inactive | inhibition [9]: inactive
Structure (SMILES): COc1ccc(N2C(=O)/C(=C/c3ccc(O)c(Br)c3)OC2=S)cc1
